Assay results taken from patent US7598419B2, “Compounds for modulating cell proliferation” (HSC Research and Development Limited Partnership, priority 2004, dated 2009).

Test system: Philadelphia positive Z119 acute lymphoblastic leukemia cells
Assay: Colony assay of Z119 cells in culture
Type: cell-based, human
Conditions: low nanomolar doses; colonies at 7 days; FIG. 3
Procedure: Z119 cells were plated in 1 ml volumes at a density of 1×10^4 cells/ml, in the absence of exogenous growth factors, into 35 mm petri dishes (Nunc, Gibco) containing IMDM (OCI, Toronto) plus 20% FCS (Cansera Rexdale, ON.) in 0.9% (vol/vol) methylcellulose (Fluka, Switzerland) with the indicated concentration of CR4. Cultures were set at 37° C., 5% CO2 in a humidified atmosphere. Colonies consisting of more than 20 cells were counted at 7 days or earlier using an inverted microscope.

Compound: N#C/C(=C\C=C\c1ccc(O)c(O)c1)C(=O)NCc1ccccc1 [CR4, (E,E)-2-(Benzylaminocarbonyl)-3-(3,4-dihydroxystyryl)acrylonitrile]
- inhibition of Z119 ALL cell proliferation and survival: significant inhibition
